Earlier results in patent publication US20050228335A1, “Physical, structural, mechanical, electrical and electromechanical features for use in association with electrically assisted delivery devices and systems” (priority 2004, published 2005).

Details: iontophoresis in vitro across human skin

SMILES | Cumulative delivery compared with lidocaine
CCCN(CC)C(CC)C(=O)Nc1c(C)cccc1C (centres unmarked) [etidocaine] | slightly greater delivery
CCN(CC)CCOC(=O)c1ccc(N)cc1 [procaine] | slightly greater delivery
